Test: first-order primary biodegradation rate constant k (sorption-corrected, fDis-corrected) (d-1); higher = faster biodegradation
Method: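 Modified OECD 309 water-sediment test. River water plus sieved sediment (50 g wet solid/L) from European river segments (DE, CH, ES, EL) was spiked with a mixture of 129 compounds at 1 ug/L each and incubated in the dark at river temperature for 10 days. The water phase was analysed by UHPLC-Orbitrap-MS. The first-order primary biodegradation rate constant k (d-1) is k_observed, corrected for dissipation in sterile sorption controls and divided by the dissolved fraction fDis; it was fitted over 3 replicate incubations. Invalid fits (p > 0.05, n < 5, not available, concentration increase) are excluded.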

[1] = river segment: Germany (DE) H_Contam, incubation temperature 24 °C
[2] = river segment: Germany (DE) T_Contam, incubation temperature 24 °C
[3] = river segment: Germany (DE) T_Pris, incubation temperature 24 °C
[4] = river segment: Greece (EL) A_Contam, incubation temperature 19 °C
[5] = river segment: Greece (EL) G_Pris, incubation temperature 19 °C
[6] = river segment: Spain (ES) B_Contam, incubation temperature 24 °C
[7] = river segment: Spain (ES) C_Contam, incubation temperature 24 °C
[8] = river segment: Spain (ES) F_Pris_Salt, incubation temperature 24 °C
[9] = river segment: Spain (ES) L_Contam, incubation temperature 24 °C
[10] = river segment: Switzerland (CH) U_Contam, incubation temperature 17 °C
[11] = river segment: Switzerland (CH) U_Pris, incubation temperature 17 °C
[12] = river segment: Greece (EL) G_Contam, incubation temperature 19 °C
[13] = river segment: Greece (EL) L_Contam, incubation temperature 19 °C
[14] = river segment: Switzerland (CH) C_Contam, incubation temperature 17 °C
[15] = river segment: Switzerland (CH) R_Contam, incubation temperature 17 °C

| first-order primary biodegradation rate constant k [1] | first-order primary biodegradation rate constant k [2] | first-order primary biodegradation rate constant k [3] | first-order primary biodegradation rate constant k [4] | first-order primary biodegradation rate constant k [5] | first-order primary biodegradation rate constant k [6] | first-order primary biodegradation rate constant k [7] | first-order primary biodegradation rate constant k [8] | first-order primary biodegradation rate constant k [9] | first-order primary biodegradation rate constant k [10] | first-order primary biodegradation rate constant k [11] | first-order primary biodegradation rate constant k [12] | first-order primary biodegradation rate constant k [13] | first-order primary biodegradation rate constant k [14] | first-order primary biodegradation rate constant k [15] | SMILES |
| --- | --- | --- | --- | --- | --- | --- | --- | --- | --- | --- | --- | --- | --- | --- | --- |
| – | 0.0266 | – | – | – | – | – | 0.166 | – | – | – | – | – | – | – | NS(=O)(=O)c1cc2c(cc1Cl)N=CNS2(=O)=O [Chlorothiazide] |
| 0.0136 | 0.0182 | – | – | – | – | – | – | – | – | – | – | – | – | – | NS(=O)(=O)c1cc(C2(O)NC(=O)c3ccccc32)ccc1Cl (stereo not drawn) [Chlorthalidone] |
| 5.75 | 5.89 | 4.29 | 7.64 | 22 | 10.1 | 7.57 | 8.78 | 12.5 | 7.54 | 10.7 | 5.93 | 5.07 | 7.85 | 7.32 | CC1(C)C[C@@H]1C(=O)N/C(=C\CCCCSC[C@H](N)C(=O)O)C(=O)O [Cilastatin] |
| 0.0901 | 0.0769 | 0.0208 | 0.0823 | 0.0358 | 0.0306 | 0.0243 | – | 0.11 | 0.034 | 0.0607 | – | 0.0249 | 0.0409 | 0.0581 | CC(C)(Oc1ccc(Cl)cc1)C(=O)O [Clofibric acid] |
| 0.0317 | 0.223 | 0.0464 | 0.826 | – | – | 0.261 | 0.0914 | 1.66 | 0.24 | 0.0988 | – | 0.0837 | 0.205 | 0.379 | O=S(=O)(O)NC1CCCCC1 [Cyclamate] |
| – | 0.109 | – | – | – | – | – | 0.107 | 0.229 | 0.0133 | 0.1 | – | – | 0.0368 | – | COc1c(Cl)ccc(Cl)c1C(=O)O [Dicamba] |
| 0.137 | 0.18 | – | 0.0748 | – | 0.574 | 0.074 | 0.0381 | 0.158 | – | – | – | 0.0701 | – | – | O=C(O)Cc1ccccc1Nc1c(Cl)cccc1Cl [Diclofenac] |
| 0.127 | 0.147 | 0.044 | 0.283 | 0.286 | – | – | – | 0.0944 | 0.0756 | 0.0899 | 0.119 | 0.166 | – | – | CN(C)C(=O)Nc1ccc(Cl)c(Cl)c1 [Diuron] |

Further lines, the compound ahead of its results:

| SMILES | first-order primary biodegradation rate constant k [1] | first-order primary biodegradation rate constant k [2] | first-order primary biodegradation rate constant k [3] | first-order primary biodegradation rate constant k [4] | first-order primary biodegradation rate constant k [5] | first-order primary biodegradation rate constant k [6] | first-order primary biodegradation rate constant k [7] | first-order primary biodegradation rate constant k [8] | first-order primary biodegradation rate constant k [9] | first-order primary biodegradation rate constant k [10] | first-order primary biodegradation rate constant k [11] | first-order primary biodegradation rate constant k [12] | first-order primary biodegradation rate constant k [13] | first-order primary biodegradation rate constant k [14] | first-order primary biodegradation rate constant k [15] |
| --- | --- | --- | --- | --- | --- | --- | --- | --- | --- | --- | --- | --- | --- | --- | --- |
| COC(=O)Nc1nc2ccccc2[nH]1 [Carbendazim] | 0.0157 | 0.155 | 0.00648 | 0.1 | 0.0594 | 0.0208 | 0.00806 | 0.03 | 0.0322 | 0.0106 | 0.0192 | – | – | – | – |
| Cc1ccc(NC(=O)N(C)C)cc1Cl [Chlortoluron] | 0.0585 | 0.156 | 0.00289 | 0.306 | 0.423 | 0.0189 | – | – | 0.114 | 0.0378 | 0.0569 | 0.0396 | 0.139 | – | – |
| CN(C)CCCC1(c2ccc(F)cc2)OCc2cc(C#N)ccc21 (stereo not drawn) [Citalopram] | 0.00417 | 4.92 | – | – | – | 0.279 | 0.06 | – | – | 0.0832 | 0.185 | 8.04 | 19.9 | 0.0178 | 0.288 |
| CC(C)(C)C(=O)C(Oc1ccc(Cl)cc1)n1ccnc1 (stereo not drawn) [Climbazole] | – | 0.282 | – | – | – | 0.421 | 0.0396 | 0.0487 | – | 1.6 | 0.68 | 9.42 | – | 0.0523 | – |
| CCCCCCCCCCN [Decylamine] | 11.8 | 54.6 | 5.65 | 68.6 | 29.1 | – | 43.8 | 12.1 | – | – | – | 17.4 | – | 0.758 | 11.7 |
| CN(C)CCN1C(=O)c2ccccc2N(C)c2ccccc21 [Dibenzepin] | 0.0259 | 0.567 | 0.127 | 0.19 | 0.127 | 0.0245 | 0.0361 | – | – | 0.0346 | 0.0723 | – | 0.215 | 0.0239 | 0.0245 |
| COCC(C)N(C(=O)CCl)c1c(C)csc1C (stereo not drawn) [Dimethenamid] | – | 0.036 | – | 0.0238 | – | – | – | – | 0.0244 | 0.0318 | 0.0152 | – | 0.014 | – | 0.0163 |
| CCCCCCCCCCCCN [Dodecylamine] | – | – | – | – | – | – | – | – | – | – | – | 7.74 | – | – | – |

— the supplement of paper PMC11562712
